Like-named read-outs stand apart in the source and are kept apart here.
Legend:
[1] = tested on: DU145 tumors (a prostate adenocarcinoma cell line); settings: oral, daily dose of 125 to 250 mg/kg/day; cited from earlier work
sc-urokinase (uPA) = target: T1, sc-urokinase (uPA) (Homo sapiens, UniProt P00749); assay: In-vitro inhibition of urokinase, chromogenic substrate, Dixon Ki; assay type: biochemical
T1 construct: purchased Ribosepharm GmbH, Haan, Germany
Protocol: (§1) The uPA inhibitor activity was determined by incubating 200 μl of Tris buffer (0.05 mol/l, containing the inhibitor, 0.154 mol/l NaCl, 5% ethanol, pH 8.0), 25 μl of substrate (Pefachrome UK or BZ-β-Ala-Gly-Arg-pNA in H2O; Pentapharm Ltd, Basle, Switzerland) and 50 μl of sc-urokinase (Ribosepharm GmbH, Haan, Germany) or another corresponding protease at 25° C. After 3 min, the reaction was interrupted by adding 25 μl of acetic acid (50%) and absorbance at 405 nm was determined by means of a microplate reader (MR 5000, Dynatech, Denkendorf, Germany). The Ki values were determined by linear regression according to Dixon by means of a computer program. The Ki values are the average of at least three determinations, and the standard deviation was below 25%.

F Xa = F Xa (Homo sapiens, UniProt P00742); assay: In-vitro protease inhibition, chromogenic substrate, Dixon Ki; assay type: biochemical
F Xa, sequence (P00742 235-488 limits assumed): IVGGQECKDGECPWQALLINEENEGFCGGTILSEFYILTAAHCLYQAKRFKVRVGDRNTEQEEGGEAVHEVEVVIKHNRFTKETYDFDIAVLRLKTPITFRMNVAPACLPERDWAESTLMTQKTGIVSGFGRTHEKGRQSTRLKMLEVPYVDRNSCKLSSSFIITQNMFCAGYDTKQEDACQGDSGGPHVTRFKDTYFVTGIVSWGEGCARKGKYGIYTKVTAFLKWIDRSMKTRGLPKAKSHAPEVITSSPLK
F Xa, sequence (P00742 41-179 partner limits assumed): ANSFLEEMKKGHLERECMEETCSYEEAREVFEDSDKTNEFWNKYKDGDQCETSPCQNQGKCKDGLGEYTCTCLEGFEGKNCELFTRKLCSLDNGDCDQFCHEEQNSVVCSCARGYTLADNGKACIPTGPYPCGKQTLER
Protocol: as §1

Plasmin = Plasmin (Homo sapiens, UniProt P00747); assay: as above; assay type: biochemical; settings: 25° C., pH 8.0
Plasmin, sequence (P00747 581-810 limits assumed, species assumed): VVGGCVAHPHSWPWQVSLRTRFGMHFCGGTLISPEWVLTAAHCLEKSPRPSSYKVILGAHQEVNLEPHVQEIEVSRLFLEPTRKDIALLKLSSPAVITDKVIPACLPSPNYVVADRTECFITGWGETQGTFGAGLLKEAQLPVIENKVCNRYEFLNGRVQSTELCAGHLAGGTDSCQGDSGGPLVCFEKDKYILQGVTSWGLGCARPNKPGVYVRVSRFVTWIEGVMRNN
Plasmin, sequence (P00747 97-580 partner limits assumed, species assumed): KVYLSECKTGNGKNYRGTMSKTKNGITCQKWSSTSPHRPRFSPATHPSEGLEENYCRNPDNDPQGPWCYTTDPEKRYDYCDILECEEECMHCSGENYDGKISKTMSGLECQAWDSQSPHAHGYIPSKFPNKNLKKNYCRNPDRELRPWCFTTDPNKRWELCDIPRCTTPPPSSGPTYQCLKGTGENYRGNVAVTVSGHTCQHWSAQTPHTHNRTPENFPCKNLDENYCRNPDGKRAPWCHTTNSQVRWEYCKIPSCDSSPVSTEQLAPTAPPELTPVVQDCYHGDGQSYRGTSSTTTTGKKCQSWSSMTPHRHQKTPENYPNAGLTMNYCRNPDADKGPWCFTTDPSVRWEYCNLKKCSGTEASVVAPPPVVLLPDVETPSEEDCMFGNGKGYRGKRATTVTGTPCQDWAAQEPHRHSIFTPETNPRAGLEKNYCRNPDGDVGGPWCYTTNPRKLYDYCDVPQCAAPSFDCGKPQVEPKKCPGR
Protocol: as §1

Thrombin = Thrombin (Homo sapiens, UniProt P00734); assay: as above; assay type: biochemical
Protocol: as §1

Trypsin = target: T2, Trypsin (UniProt P00760); assay: as above; assay type: biochemical
T2 sequence (P00760 1-246): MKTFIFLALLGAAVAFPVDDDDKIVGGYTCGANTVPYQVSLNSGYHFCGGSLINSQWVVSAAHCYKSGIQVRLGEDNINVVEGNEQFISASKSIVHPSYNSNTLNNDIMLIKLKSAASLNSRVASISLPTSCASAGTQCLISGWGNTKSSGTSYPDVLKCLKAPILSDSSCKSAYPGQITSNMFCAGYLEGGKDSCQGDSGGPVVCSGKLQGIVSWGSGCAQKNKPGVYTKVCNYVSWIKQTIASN
Protocol: The Ki values were determined by linear regression according to Dixon by means of a computer program.

[2] = tested on: rat breast adenocarcinoma cells; settings: after i.v. inoculation of tumor cells; cited from earlier work
rat prostate cancer = settings: syngeneic rat prostate cancer; cited from earlier work
mouse breast cancer = settings: cited from earlier work
[3] = 25° C., pH 8.0, average of at least three determinations, read-out: Ki uPA
[4] = 25° C., pH 8.0, read-out: Ki F Xa
[5] = 25° C., pH 8.0, read-out: Ki Thrombin
[6] = 25° C., pH 8.0; read-out: Ki Trypsin
[7] = Ki uPA, 25° C., pH 8.0, average of at least three determinations
[8] = read-out: Ki Trypsin; 25° C., pH 8.0

Q: Which “growth rate of DU145 tumors” value [1] does the source give for `N=C(N)c1ccc(N)cc1` [p-Aminobenzamidine] here?
A: Its value is “distinct decrease in the growth rate”.

Q: And the side effects [1]?
A: Its side effects is “negligible”.

Q: For `CC(=O)Nc1ccc(S(=O)(=O)NCC(=O)NCc2ccc(NC(=N)N)cc2)cc1` [ST 296], which Ki (sc-urokinase (uPA); [3]) is on record?
A: Its Ki is 22 µM.

Q: And the Ki (F Xa; [4])?
A: Its Ki is > 1000 µM.

Q: What about the Ki (Plasmin) of the same compound?
A: The Ki was > 1000 µM.

Q: And the Ki (Thrombin; [5])?
A: The Ki was > 1000 µM.

Q: What about the Ki (Trypsin; [6]) of the same compound?
A: Its Ki is 42 µM.

Q: For `N=C(N)Nc1ccc(N)cc1` [ST 267], which Ki (sc-urokinase (uPA); [3]) is on record?
A: The Ki was > 1000 µM.

Q: What about the Ki (F Xa; [4]) of the same compound?
A: The Ki was > 1000 µM.

Q: And the Ki (Plasmin)?
A: Its Ki is > 1000 µM.

Q: What about the Ki (Thrombin; [5]) of the same compound?
A: Its Ki is > 1000 µM.

Q: What about the Ki (Trypsin; [6]) of the same compound?
A: The Ki was > 1000 µM.

Q: For `N=C(N)Nc1ccc(CNC(=O)OC23C[C@H]4C[C@@H](C2)C[C@@H](C3)C4)cc1` [ST 274], which Ki (sc-urokinase (uPA); [3]) is on record?
A: The Ki was 23 µM.

Q: What about the Ki (F Xa; [4]) of the same compound?
A: Its Ki is > 1000 µM.

Q: And the Ki (Plasmin)?
A: The Ki was > 1000 µM.

Q: And the Ki (Thrombin; [5])?
A: Its Ki is > 1000 µM.

Q: What about the Ki (Trypsin; [6]) of the same compound?
A: The Ki was > 1000 µM.

Q: Which Ki (sc-urokinase (uPA); [3]) does the source give for `N=C(N)Nc1ccc(CN)cc1` [ST 275] here?
A: The Ki was > 1000 µM.

Q: And the Ki (F Xa; [4])?
A: Its Ki is > 1000 µM.

Q: And the Ki (Plasmin)?
A: Its Ki is > 1000 µM.

Q: What about the Ki (Thrombin; [5]) of the same compound?
A: Its Ki is > 1000 µM.

Q: And the Ki (Trypsin; [6])?
A: Its Ki is > 1000 µM.

Q: Which results are given for `CC(C)(C)OC(=O)NCC(=O)NCc1ccc(NC(=N)N)cc1` [ST 294]?
A: Ki (sc-urokinase (uPA); [3]): 37 µM; Ki (F Xa; [4]): > 1000 µM; Ki (Plasmin): > 1000 µM; Ki (Thrombin; [5]): > 1000 µM; Ki (Trypsin; [6]): > 1000 µM

Q: Which “formation of lung metastases” value [2] does the source give for `N=C(N)NC(=O)c1nc(Cl)c(N)nc1N` [amiloride] here?
A: The value was “prevents the formation of lung metastases”.

Q: Which results are given for `CC(C)(C)OC(=O)NCc1ccc(NC(=N)N)cc1` [ST 242]?
A: Ki (sc-urokinase (uPA); [3]): 36 µM; Ki (F Xa; [4]): > 1000 µM; Ki (Plasmin): > 1000 µM; Ki (Thrombin; [5]): > 1000 µM; Ki (Trypsin; [6]): > 1000 µM

Q: For `CC(C)OC(=O)NCc1ccc(NC(=N)N)cc1` [ST 273], which Ki (sc-urokinase (uPA); [3]) is on record?
A: Its Ki is 52 µM.

Q: What about the Ki (F Xa; [4]) of the same compound?
A: Its Ki is > 1000 µM.

Q: What about the Ki (Plasmin) of the same compound?
A: The Ki was 130 µM.

Q: And the Ki (Thrombin; [5])?
A: The Ki was > 1000 µM.

Q: What about the Ki (Trypsin; [6]) of the same compound?
A: The Ki was > 1000 µM.

Q: Which results are given for `N=C(N)Nc1ccc(CNC(=O)Oc2ccc(/N=N/c3ccccc3)cc2)cc1` [ST 315]?
A: Ki (sc-urokinase (uPA); [7]): 11 µM; Ki (sc-urokinase (uPA); Ki value for uPA): > 1000 µM; Ki (F Xa): > 1000 µM; Ki (Thrombin): > 1000 µM; Ki (Trypsin; [8]): 200 µM

Q: What does the source list for `CC(=O)Nc1ncc(S(=O)(=O)NCc2ccc(NC(=N)N)cc2)s1` [ST 282]?
A: Ki (sc-urokinase (uPA); [3]): 240 µM; Ki (F Xa; [4]): > 1000 µM; Ki (Plasmin): > 1000 µM; Ki (Thrombin; [5]): > 1000 µM; Ki (Trypsin; [6]): > 1000 µM

Q: What does the source list for `CCOC(=O)NCc1ccc(NC(=N)N)cc1` [ST 269]?
A: Ki (sc-urokinase (uPA); [3]): 27 µM; Ki (F Xa; [4]): > 1000 µM; Ki (Plasmin): > 1000 µM; Ki (Thrombin; [5]): > 1000 µM; Ki (Trypsin; [6]): > 1000 µM

Q: Which Ki (sc-urokinase (uPA); [3]) does the source give for `N=C(N)Nc1ccc(CNC(=O)OCc2ccc([N+](=O)[O-])cc2)cc1` [ST 311] here?
A: Its Ki is 12 µM.

Q: And the Ki (F Xa; [4])?
A: Its Ki is > 1000 µM.

Q: What about the Ki (Thrombin; [5]) of the same compound?
A: Its Ki is > 1000 µM.

Q: What about the Ki (Trypsin; [6]) of the same compound?
A: The Ki was 200 µM.

Q: For `CC(C)(c1ccc(OC(=O)NCc2ccc(NC(=N)N)cc2)cc1)c1ccc(OC(=O)NCc2ccc(NC(=N)N)cc2)cc1` [ST 312], which “uPA inhibition, result in words” value (sc-urokinase (uPA)) is on record?
A: The value was “particularly effective and selective inhibitors”.

Q: And the Ki (sc-urokinase (uPA); [7])?
A: The Ki was 2.8 µM.

Q: And the Ki (sc-urokinase (uPA); Ki value for uPA)?
A: The Ki was > 1000 µM.

Q: And the Ki (F Xa)?
A: The Ki was > 1000 µM.

Q: And the Ki (Thrombin)?
A: The Ki was > 1000 µM.

Q: And the Ki (Trypsin; [8])?
A: Its Ki is 100 µM.

Q: What does the source list for `N=C(N)Nc1ccc(CNC(=O)NC23C[C@H]4C[C@@H](C2)C[C@@H](C3)C4)cc1` [ST 293]?
A: uPA inhibition, result in words (sc-urokinase (uPA)): particularly effective and selective inhibitors; Ki (sc-urokinase (uPA); [3]): 2.4 µM; Ki (sc-urokinase (uPA); read-out: Ki value for uPA): > 1000 µM; Ki (F Xa; [4]): > 1000 µM; Ki (Plasmin): > 1000 µM; Ki (Thrombin; [5]): 600 µM; Ki (Trypsin; [6]): 46 µM

Q: Which “tumor growth and metastases formation” value (rat prostate cancer) does the source give for `N=C(N)c1cc2c(I)cccc2s1` [B428, 4-iodobenzo[b]thiophene-2-carboxamidine] here?
A: The value was “decrease of tumor growth and metastases formation”.

Q: What about the primary tumor growth (mouse breast cancer; administered together with the antiestrogen tamoxifen) of the same compound?
A: Its primary tumor growth is “further decrease in primary tumor growth”.

Q: And the “tumor growth and metastases formation” value (mouse breast cancer; syngeneic mouse breast cancer)?
A: The value was “decrease of tumor growth and metastases formation”.

Q: With `N=C(N)Nc1ccc(CNC(=O)Nc2ccccc2)cc1` [ST 301] as the compound, how does the Ki (sc-urokinase (uPA); [3]) read?
A: Its Ki is 29 µM.

Q: And the Ki (F Xa; [4])?
A: Its Ki is 330 µM.

Q: What about the Ki (Plasmin) of the same compound?
A: Its Ki is 170 µM.

Q: What about the Ki (Thrombin; [5]) of the same compound?
A: Its Ki is > 1000 µM.

Q: And the Ki (Trypsin; [6])?
A: The Ki was > 1000 µM.

Q: With `CC(C)c1cc(C(C)C)c(S(=O)(=O)NCC(=O)NCc2ccc(NC(=N)N)cc2)c(C(C)C)c1` [ST 298] as the compound, how does the Ki (sc-urokinase (uPA); [3]) read?
A: The Ki was 42 µM.

Q: And the Ki (F Xa; [4])?
A: Its Ki is > 1000 µM.

Q: And the Ki (Plasmin)?
A: Its Ki is > 1000 µM.

Q: And the Ki (Thrombin; [5])?
A: The Ki was > 1000 µM.

Q: And the Ki (Trypsin; [6])?
A: Its Ki is 37 µM.

Q: For `COc1cc(COC(=O)NCc2ccc(NC(=N)N)cc2)c([N+](=O)[O-])cc1OC` [ST 313], which Ki (sc-urokinase (uPA); [3]) is on record?
A: The Ki was 35 µM.

Q: What about the Ki (F Xa; [4]) of the same compound?
A: Its Ki is > 1000 µM.

Q: What about the Ki (Thrombin; [5]) of the same compound?
A: The Ki was > 1000 µM.

Q: Which results are given for `CC(C)(C)COC(=O)NCc1ccc(NC(=N)N)cc1` [ST 271]?
A: Ki (sc-urokinase (uPA); [3]): 51 µM; Ki (F Xa; [4]): > 1000 µM; Ki (Plasmin): > 1000 µM; Ki (Thrombin; [5]): > 1000 µM; Ki (Trypsin; [6]): > 1000 µM

From patent US7208521B2, “Selective inhibitors of the urokinase plasminogen activator” (Wilex AG, priority 1999, dated 2007)
